Measurements from patent EP2975030B1, “DIHYDROPYRIDAZINE-3,5-DIONE DERIVATIVE” (Chugai Seiyaku Kabushiki Kaisha, priority 2013, dated 2014).

System: rat small-intestinal brush border membrane vesicles
Experiment: Inhibitory effect on 33PO4 uptake into rat small-intestinal brush border membrane vesicles (rapid filtration method)
Assay type: biochemical, Wistar female rat
Details: 1 µM test compound, 33PO4 uptake into rat small-intestinal BBMVs, 60 seconds
In short: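 Uptake was terminated by ice-cold 110 mM NaCl, 1 mM KH2PO4, 10 mM HEPES (pH 7.5) buffer and immediate suction filtration, then washing. Using rat small-intestinal BBMVs, retained 33PO4 was quantified by liquid scintillation counting as transport activity.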

Compound	Rate of uptake inhibition (%) (1 µM)	Rate of uptake inhibition (%) (1 µM)
CC1(C)CC[C@]2(C)C(O)=C(C(=O)Nc3cc(C(F)(F)F)ccc3-c3ccc(C(F)(F)F)nc3)C(=O)N(Cc3cccc(F)c3F)N12 [Example 63]	72	
CN1N(Cc2ccc(OCCCCCC(=O)O)c(F)c2F)C(=O)C(C(=O)Nc2ccc(C(F)(F)F)cc2-c2cc(C(F)(F)F)ncn2)=C(O)C12CCCC2 [Example 334]	22	
CN1N(Cc2cccc(F)c2F)C(=O)C(C(=O)Nc2ccc(Br)c(C(F)(F)F)n2)=C(O)C12CCCC2 [Example 263]	66	
CN1[C@@H](C(C)(C)C)C(O)=C(C(=O)Nc2cnc(C(F)(F)F)nc2-c2ccc(C(F)(F)F)nc2)C(=O)N1Cc1ccc(OCCN2CCOCC2)c(F)c1F [Example 273]	41	
CN(CCOCCOc1ccc(CN2C(=O)C(C(=O)Nc3ccc(C(F)(F)F)cc3-c3cc(C(F)(F)F)ncn3)=C(O)C3(CCCC3)N2C)c(F)c1F)C[C@H](O)[C@@H](O)[C@H](O)[C@H](O)CO [Example 420, 7-[[2,3-Difluoro-4-[2-[2-[methyl-[(2S,3R,4R,5R)-2,3,4,5,6-pentahydroxyhexyl]amino]ethoxy]ethoxy]phenyl]methyl]-10-hydroxy-6-methyl-8-oxo-N-[4-(trifluoromethyl)-2-[6-(trifluoromethyl)pyrimidin-4-yl]phenyl]-6,7-diazaspiro[4.5]dec-9-ene-9-carboxamide]	19	
C[C@]12CCCN1N(Cc1c(Cl)cc(OCCN3CCOCC3)cc1Cl)C(=O)C(C(=O)Nc1cnc(C(F)(F)F)nc1-c1ccc(C(F)(F)F)nc1)=C2O.Cl [Example 146, (4aR)-1-[[2,6-Dichloro-4-(2-morpholin-4-ylethoxy)phenyl]methyl]-4-hydroxy-4a-methyl-2-oxo-N-[2-(trifluoromethyl)-4-[6-(trifluoromethyl)pyridin-3-yl]pyrimidin-5-yl]-6,7-dihydro-5H-pyrrolo[1,2-b]pyridazine-3-carboxamide hydrochloride]	71	
CN1N(Cc2ccc(OCCCCOC[C@H](O)CO)c(F)c2F)C(=O)C(C(=O)Nc2ccc(C(F)(F)F)cc2-c2ccc(C(F)(F)F)nc2)=C(O)C12CCCC2 [Example 387]	23	
CSc1ccc(-c2cc(C(F)(F)F)ccc2NC(=O)C2=C(O)[C@@]3(C)CCCN3N(Cc3ccc(CCCCCCC(=O)O)c(F)c3F)C2=O)cn1 [Example 115, 7-[4-[[(4aR)-4-Hydroxy-4a-methyl-3-[[2-(6-methylsulfanylpyridin-3-yl)-4-(trifluoromethyl)phenyl]carbamoyl]-2-oxo-6,7-dihydro-5H-pyrrolo[1,2-b]pyridazin-1-yl]methyl]-2,3-difluorophenyl]heptanoate]	85	
COc1cccc(-c2cc(C(F)(F)F)ccc2NC(=O)C2=C(O)[C@@]3(C)CCCN3N(Cc3ccc(C#CCCCO)c(F)c3F)C2=O)c1OC [Example 138]	93	
CN(CCOc1ccc(CN2C(=O)C(C(=O)Nc3ccc(C(F)(F)F)cc3-c3cc(C(F)(F)F)ncn3)=C(O)C3(CCC3)N2C)c(F)c1F)C1CCOC1 (stereo not drawn) [Example 338, 6-[[2,3-Difluoro-4-[2-[methyl(oxolan-3-yl)amino]ethoxy]phenyl]methyl]-9-hydroxy-5-methyl-7-oxo-N-[4-(trifluoromethyl)-2-[6-(trifluoromethyl)pyrimidin-4-yl]phenyl]-5,6-diazaspiro[3.5]non-8-ene-8-carboxamide]	66	
(4aS,5S,8R)-1-(3-Fluorobenzyl)-4-hydroxy-N-(5-methyl-2-(trifluoromethyl)furan-3-yl)-2-oxo-2,4a,5,6,7,8-hexahydro-1H-5,8-methanopyrido[1,2-b]pyridazine-3-carboxamide [Example 20]	21	
CSc1ccc(-c2cc(C(F)(F)F)ccc2NC(=O)C2=C(O)C(C)(C)N(C)N(Cc3cccc(F)c3F)C2=O)cn1 [Example 310]	63	
CN1N(Cc2ccc(OCCCCCOCCCO)c(F)c2F)C(=O)C(C(=O)Nc2ccc(C(F)(F)F)cc2-c2cc(C(F)(F)F)ncn2)=C(O)C12CCCC2 [Example 400]	36	
CSc1ccc(-c2cc(C(F)(F)F)ccc2NC(=O)C2=C(O)[C@@]3(C)CCCN3N(Cc3ccc(OCCN4CCOCC4)c(F)c3F)C2=O)cn1 [Example 103]	78	
C[C@]12CCCN1N(Cc1cccc(OC(F)F)c1)C(=O)C(C(=O)Nc1ccc(C(F)(F)F)cc1-c1ccc(C(F)(F)F)nc1)=C2O [Example 167]	73	
CN1N(Cc2ccc(OCCOCCOCCOCCNC(=O)[C@@H](O)[C@H](O)[C@@H](O)[C@@H](O)CO)c(F)c2F)C(=O)C(C(=O)Nc2ccc(C(F)(F)F)cc2-c2cc(C(F)(F)F)ncn2)=C(O)C12CCCC2 [Example 428, 7-[[2,3-Difluoro-4-[2-[2-[2-[2-[[(2S,3R,4S,5S)-2,3,4,5,6-pentahydroxyhexanoyl]amino]ethoxy]ethoxy]ethoxy]ethoxy]phenyl]methyl]-10-hydroxy-6-methyl-8-oxo-N-[4-(trifluoromethyl)-2-[6-(trifluoromethyl)pyrimidin-4-yl]phenyl]-6,7-diazaspiro[4.5]dec-9-ene-9-carboxamide]	14	
COCC(C)(C)N(C)CCOc1ccc(CN2C(=O)C(C(=O)Nc3ccc(C(F)(F)F)cc3-c3cc(C(F)(F)F)ncn3)=C(O)C3(CCC3)N2C)c(F)c1F [Example 349]	55	

Compound	Rate of uptake inhibition (%) (1 µM)	Rate of uptake inhibition (%) (1 µM)
Cc1c(C#N)ncnc1-c1cc(Cl)ccc1NC(=O)C1=C(O)[C@H](C(C)(C)C)N(C)N(Cc2ccc(OCCN3CCOCC3)c(F)c2F)C1=O [Example 274]	43	
Cc1cc(NC(=O)C2=C(O)[C@@H]3CCC(C)(C)N3N(Cc3cccc(F)c3)C2=O)c(C(F)(F)F)o1 [Example 4, (4aS)-1-[(3-Fluorophenyl)methyl]-4-hydroxy-7,7-dimethyl-N-[5-methyl-2-(trifluoromethyl)furan-3-yl]-2-oxo-5,6-dihydro-4aH-pyrrolo[1,2-b]pyridazine-3-carboxamide]	32	
CN1N(Cc2ccc(OCCNCCS(=O)(=O)O)c(F)c2F)C(=O)C(C(=O)Nc2ccc(C(F)(F)F)cc2-c2cc(C(F)(F)F)ncn2)=C(O)C12CCCC2 [Example 435, 2-[2-[2,3-Difluoro-4-[[10-hydroxy-6-methyl-8-oxo-9-[[4-(trifluoromethyl)-2-[6-(trifluoromethyl)pyrimidin-4-yl]phenyl]carbamoyl]-6,7-diazaspiro[4.5]dec-9-en-7-yl]methyl]phenoxylethy]amino]ethanesulfonic acid]		11
C[C@]12CCCN1N(Cc1ccc(OC[C@H]3CCCO3)c(F)c1F)C(=O)C(C(=O)Nc1ccc(C(F)(F)F)cc1-c1ccc(C(F)(F)F)nc1)=C2O [Example 160]	77	
CCC1(CC)C(O)=C(C(=O)Nc2ccc(Cl)cc2-c2cc(C(F)(F)F)ncn2)C(=O)N(Cc2ccc(OCCN3CCOCC3)c(F)c2F)N1C [Example 292]	44	
Cc1c(C#N)ncnc1-c1cc(C(F)(F)F)ccc1NC(=O)C1=C(O)C(C)(C)N(C)N(Cc2cccc(F)c2F)C1=O [Example 311]	65	
CN1N(Cc2ccc(OCCn3cncn3)c(F)c2F)C(=O)C(C(=O)Nc2ccc(C(F)(F)F)cc2-c2cc(C(F)(F)F)ncn2)=C(O)C12CCC2 [Example 352]	27	
C[C@]12CCCN1N(Cc1cccc(OC(F)F)c1)C(=O)C(C(=O)Nc1ccc(C(F)(F)F)cc1-c1cc(C(F)(F)F)ncn1)=C2O [Example 177]	85	
CC(C)[C@H]1C(O)=C(C(=O)Nc2ccc(C(F)(F)F)cc2-c2ccc(C(F)(F)F)nc2)C(=O)N(Cc2ccc(OCCN3CCOCC3)c(F)c2F)N1C [Example 280]	50	
COCCN(C)CCOc1c(-c2cccnc2)cc(CN2C(=O)C(C(=O)Nc3ccc(C(F)(F)F)cc3-c3cc(C(F)(F)F)ncn3)=C(O)C3(CCCC3)N2C)c(F)c1F [Example 440, 9-[[2,3-Difluoro-4-[2-[2-methoxyethyl(methyl)amino]ethoxy]-5-(3-pyridinyl)phenyl]methyl]-6-hydroxy-10-methyl-8-oxo-N-[4-(trifluoromethyl)-2-[6-(trifluoromethyl)pyrimidin-4-yl]phenyl]-9,10-diazaspiro[4.5]dec-6-ene-7-carboxamide]	28	
CN1N(Cc2ccc(OCCCCOCCCO)c(F)c2F)C(=O)C(C(=O)Nc2ccc(C(F)(F)F)cc2-c2cc(C(F)(F)F)ncn2)=C(O)C12CCCC2 [Example 399]	42	
CN1N(Cc2ccc(OCCN3CCN(S(C)(=O)=O)CC3)c(F)c2F)C(=O)C(C(=O)Nc2ccc(C(F)(F)F)cc2-c2cc(C(F)(F)F)ncn2)=C(O)C12CCC2 [Example 363]	11	
CCOc1cccc(-c2cc(C(F)(F)F)ccc2NC(=O)C2=C(O)[C@@]3(C)CCCN3N(Cc3cccc(F)c3F)C2=O)c1OC [Example 66]	96	
CN1N(Cc2ccc(OCCN3CCOCC3)c(F)c2F)C(=O)C(C(=O)Nc2ccc(C(F)(F)F)cc2-c2ccc(C(F)(F)F)nc2)=C(O)C12CCC2 [Example 282]	55	
Cc1c(Cl)ncnc1-c1cc(C(F)(F)F)ccc1NC(=O)C1=C(O)[C@@]2(C)CCCN2N(Cc2cccc(F)c2F)C1=O [Example 69]	74	
COc1cccc(-c2cc(C(F)(F)F)ccc2NC(=O)C2=C(O)[C@@]3(C)CCCN3N(Cc3ccc(OC[C@H]4CCCO4)c(F)c3F)C2=O)c1OC [Example 159]	89	
